This note sets out measurements from patent publication US9839632B2, “Methods and compositions using 4-amino-2-(2,6-dioxo-piperidine-3-yl)-isoindoline-1,3-dione for treatment and management of central nervous system cancers” (CELGENE CORPORATION, priority 2013, dated 2017).

This experiment has as its system U937 cells cocultured with Raji lymphoma cells. The experiment is described as follows: Polarization of U937 cocultured with Raji lymphoma cells with or without YTS NK cells. The class given is cell-based, human. As to conditions: for M2 polarization of U937 cells (FXIIIA, pSTAT6): coculture with Raji lymphoma cells, without NK cells; for polarization status of U937 cells (iNOS, pSTAT1): triple culture with Raji lymphoma cells and YTS NK cells, 10 ug/ml 48 hours. As for the experimental part: Raji lymphoma cells (ATCC), U937 human monocyte cells (ATCC) and YTS NK cells (a gift from Dr. Pamela A. Becker) were cultured at 37° C. in a humidified incubator under 5% CO2 and 95% air in RPMI-1640 supplemented with 20% FCS and 1% penicillin-streptomycin, and 1% nonessential amino acids.
OCI-LY10 lymphoma cells (a gift from Arthur L. Shaffer III) were cultured at 37° C. in a humidified incubator under 5% CO2 and 95% air in IMDM supplemented with 20% FCS and 1% penicillin-streptomycin. Co-culture of lymphoma cells and U937 monocytes: Raji and U937 monocytes were cultured at 37° C. in a humidified incubator under 5% CO2 and 95% air in RPMI-1640 supplemented with 20% FCS and 1% penicillin-streptomycin, and 1% nonessential amino acids. OCI-LY10 and U937 monocytes were cultured at 37° C. in a humidified incubator under 5% CO2 and 95% air in IMDM supplemented with 20% FCS and 1% penicillin-streptomycin. Triple culture of lymphoma cells, U937 monocytes and YTS cells: Raji, U937 and YTS cells were cultured at 37° C. in a humidified incubator under 5% CO2 and 95% air in RPMI-1640 supplemented with 20% FCS and 1% penicillin-streptomycin, and 1% nonessential amino acids. OCI-LY10, U937 and YTS were cultured at 37° C. in a humidified incubator under 5% CO2 and 95% air in IMDM supplemented with 20% FCS and 1% penicillin-streptomycin.
Treatments: In experiments in which IL-4 was used to induce M2 polarization of macrophages, cells were treated with IL-4 (20 ng/ml) for 48 hours followed by treatment with 4-amino-2-(2,6-dioxo-piperidine-3-yl)-isoindoline-1,3-dione (10 ug/ml) or DMSO control for 48 hours. In triple cell culture experiments with lymphoma cells, macrophages, and NK cells, the treatment was with either DMSO or 4-amino-2-(2,6-dioxo-piperidine-3-yl)-isoindoline-1,3-dione (10 ug/ml) for 48 hours.
Immunofluorescence for analysis of macrophage polarization in cell culture experiments: Live cells were fixed in 10% formalin for 30 minutes at room temperature followed by permeabilization with PBS-0.2% Triton X-100 for 2 min. After blocking with PBS-5% goat serum-0.02% Triton X-100 for 30 minutes at 37° C., the cells were incubated overnight at 4° C. with rat monoclonal F4/80 antibody (for primary microglia cells, 1:200 Abcam), rat monoclonal CD11b (for U937, 1:200 Biolegend), rabbit polyclonal Ym1 antibody (for primary microglia cells and primary peritoneal macrophages, 1:200, Stemcell Technologies, Vancouver, Canada), rabbit polyclonal FXIII A antibody (for U937, 1:200, Abcam), mouse monoclonal p-STAT1 antibody (1:200, Abcam), rabbit polyclonal p-STAT6 antibody (1:200, Abcam) or rabbit iNOS antibody (1:200, Calbiochem). […]

[1] abbreviates: listed as 4-amino-2-(2,6-dioxo-piperidine-3-yl)-isoindoline-1,3-dione.

In the case of `Nc1cccc2c1C(=O)N(C1CCC(=O)NC1=O)C2=O` (stereo not shown) [Pomalidomide, 4-amino-2-(2,6-dioxo-piperidine-3-yl)-isoindoline-1,3-dione], the “M2 polarization of U937 cells (FXIIIA, pSTAT6)” value is “reversed” and the “polarization status of U937 cells (iNOS, pSTAT1)” value is on record as “from M2 to M1”. Besides, under setting [1], the “M2 polarization of U937 cells (FXIIIA, pSTAT6)” value is reported as “prevented the M2 polarization of macrophages but did not induce them into M1 polarization” and the “polarization status of U937 cells (iNOS, pSTAT1)” value was “became M1-polarized”.
